Results reported in patent US10626145B2, “Peptide with anti-obesity and anti-diabetes activity and use thereof” (CAREGEN CO., LTD., priority 2015, dated 2020).

Assays:
[1] = tested on: DB/DB diabetes-induced mice; experiment: Blood sugar over time in DB/DB diabetes-induced mice given individual peptides; format: in vivo, mouse; conditions: starved 16 hours, fed 30 min, then peptide administered
Method: In addition, after starvation for 16 hours, DB/DB diabetes-induced mice were fed for 30 min and then administered with the peptides. Blood sugar levels were measured over times.

aP2 = experiment: RT-PCR expression of adipogenic marker aP2 in 3T3-L1; format: cell-based, mouse; conditions: for expression level of adipogenic marker aP2 (individual peptides): 3T3-L1, incubated for three days
Method: (§1) 3T3-L1 cells (pre-adipocytes) were seeded at a density of 3×10^5 cells/well into 6-well plates. […] Thereafter, the cells were harvested and treated with an RNA extraction solution (Easy Blue, Intron) to prepare RNA from which cDNA was then synthesized using an RT premix (Intron). PCR was performed using primers for […] markers (PPARγ, ACC, and aP2), and a PCR premix (Intron).
(§2) Target-specific primer sequences for PCR of adipogenic markers were as follows: PPARγ forward primer sequence, 5′-[…]-3′ and PPARγ reverse primer, 5′-[…]-3′ (annealing temperature, 60° C.); ACC forward primer sequence, 5′-[…]-3′ and ACC reverse primer, 5′-[…]-3′ (annealing temperature, 60° C.); aP2 forward primer sequence, 5′-[…]-3′ and aP2 reverse primer, 5′-[…]-3′ (annealing temperature, 60° C.)
(§3) PCR products were each loaded in a volume of 5 μl into a 1% agarose gel, and electrophoresed, followed by identifying bands in a Gel-Doc.

[2] = tested on: 3T3-L1 cells (pre-adipocytes); experiment: Suppression of lipid accumulation in pre-adipocytes (Oil Red O staining); format: cell-based, mouse; conditions: 3T3-L1, various concentrations, differentiation induced for 10 days
Method: The pre-adipocytes 3T3-L1 cells were grown to confluence and then incubated for two days with various concentrations of the peptides in a differentiation medium containing 10 μg/ml insulin, 0.1 μM dexamethasone, and 0.5 μM IBMX. The medium was exchanged every two days with a medium containing 10 μg/ml insulin. After differentiation was induced for 10 days, the generation of droplet in the cells was examined by Oil Red O staining. The prepared 3T3-L1 adipocytes were washed with PBS, fixed with 3.7% formalin for one hour, and washed with 60% isopropanol. The resulting cells were dyed with Oil Red O reagent at room temperature for 20 min. After removal of the Oil Red O reagent, the cells were washed three times with distilled water, and observed under a phase-contrast microscope. For quantitative analysis, fats were extracted from the cells using 100% isopropanol, and the cells were transferred in an amount of 200 μl/well into 96-well plates and measured for optical density at 500 nm using an ELISA reader.

IGF-1 = experiment: Western blotting of IGF-1 expression in 3T3-L1; format: cell-based, mouse; conditions: 3T3-L1, 10 ng-1 μg/ml, 14 days; dose-dependent
Method: (§4) 3T3-L1 cells (pre-adipocytes) were seeded at a density of 3×10^5 cells/well into 6-well plates and grown for 24 hours. Subsequently, the cells were incubated with various concentrations (10 ng-1 μg/ml) of the peptides for 14 days in a 37° C. incubator. Proteins were extracted from cell lysates which were obtained by treatment with cell lysis buffer, quantitatively analyzed, and subjected to Western blotting using an anti-IGF-1 antibody, which is an antibody against the lipolytic marker, and an insulin antibody (Santa Cruz Biotechnology, USA).

insulin = experiment: Western blotting of insulin expression in 3T3-L1; format: cell-based, mouse; conditions: 3T3-L1, 10 ng-1 μg/ml, 14 days; dose-dependent
Method: as §4

PPARγ = experiment: RT-PCR expression of adipogenic marker PPARγ in 3T3-L1; format: cell-based, mouse; conditions: 3T3-L1, three days; complex 0.1, 1, 10 μg/ml; TNFα 100 ng/ml
Method: as §1, §2, §3

ACC = experiment: RT-PCR expression of adipogenic marker ACC in 3T3-L1; format: cell-based, mouse; conditions: 3T3-L1, three days; complex 0.1, 1, 10 μg/ml; TNFα 100 ng/ml
Method: as §1, §2, §3

[3] = tested on: DIO (diets induced obesity) models; experiment: Weight loss and adipogenesis suppression in high-fat diet-fed animal (DIO), 12 weeks; format: in vivo, mouse; conditions: for Weight: intraperitoneal injection; for Weight (%): relative to initial weight
Method: Models DIO (diets induced obesity), which had become obese by feeding high-fat diets thereto, were used for anti-obesity experiments in which TNFα 5 μg/ml was used as a positive control. For a control, a general diet, not a high-fat diet, was fed. In the experiment, a high-fat diet was fed for 12 weeks while the peptide complex or the positive control was applied. During the experiment, the weight was monitored. TNFα and the anti-obesity compounds were intraperitoneally injected at PM 3-4 o'clock every week for 12 weeks. Weights and meal sizes were measured just before the initial injection and then regularly at intervals of one week. Blood samples were taken from tail veins after the experiments of drug injection and measured for blood sugar levels, using Accu-Check Active (Roche) and analyzed for cholesterol levels, using Cholesterol calculation Kit (BioVision). Adipose tissues are divided into white fat and brown fat by color and into subcutaneous fat, abdominal fat, mesentery fat (visceral fat), and epididymal fat by tissue. After lipoectomy, the fats thus obtained from the tissues were observed. For histological examination, the fats were fixed with 10% neutral buffered formalin, embedded in paraffin blocks, cut into 5 μm-thick sections, and dyed with hematoxylin and eosin. To analyze the phosphorylation of the lipolytic marker HSL, fluorescent staining was carried out with an anti-pHSL antibody. A tissue sample was made, mounted on glycerine jell mounting media, and covered with a cover glass. The tissues were observed under a microscope (Nikon, TS100), with a built-in digital camera taking images thereof.

ASYLPHPWFS (Peptide 5) [SEQ ID NO: 5] was tested, and the “blood sugar levels over time” value [1] was “decrease in a time-dependent manner”, the “expression level of adipogenic marker aP2 (individual peptides)” value (“expression level” below) (aP2) was “decreased” and the “extent of fat (lipid) accumulation in cells, Oil red O staining” value (from here on “extent of fat (lipid) accumulation”) [2] was “decreased”.
For KGASTGWMA (Peptide 3) [SEQ ID NO: 3], the “blood sugar levels over time” value [1] was “decrease in a time-dependent manner”, the “expression level” value (aP2) was “decreased” and the “extent of fat (lipid) accumulation” value [2] was “decreased”.
With “NH2-Leu-Lys-Thr-Arg-Asn-COOH (H-LKTRN-OH) [SEQ ID NO: 1]” the “blood sugar levels over time” value [1] was “decrease in a time-dependent manner”, the “expression level” value (aP2) was “decreased” and the “extent of fat (lipid) accumulation” value [2] was “decreased”.
SDLRRLEMYS (Peptide 7) [SEQ ID NO: 7] was tested, and the “expression of IGF-1” value (IGF-1) was “increased” and the expression of insulin (insulin) was “increased”.
TNFα was tested, and the “expression of adipogenic marker PPARγ” value (PPARγ) was “decrease”, the “expression of adipogenic marker aP2” value (aP2; 3T3-L1, three days, complex 0.1, 1, 10 μg/ml, TNFα 100 ng/ml) was “decrease” and the “expression of adipogenic marker ACC” value (ACC) was “decrease”. For the same substance, the “Weight” value ([3]; 0 w) was 22.41 g, the “Weight (%)” value ([3]; 0 w) was 100% and the “Weight” value ([3]; 1 w) was 23 g. The “Weight (%)” value ([3]; 1 w) was 102.6%, the “Weight” value ([3]; 2 w) was 26.12 g and the “Weight (%)” value ([3]; 2 w) was 116.6%. For the same substance, the “Weight” value ([3]; 3 w) was 27.45 g, the “Weight (%)” value ([3]; 3 w) was 122.5% and the “Weight” value ([3]; 4 w) was 30.51 g. For the same substance, the “Weight (%)” value ([3]; 4 w) was 136.1%, the “Weight” value ([3]; 5 w) was 32.76 g and the “Weight (%)” value ([3]; 5 w) was 146.2%. For the same substance, the “Weight” value ([3]; 6 w) was 33.49 g, the “Weight (%)” value ([3]; 6 w) was 149.4% and the “Weight” value ([3]; 7 w) was 35.14 g. For the same substance, the “Weight (%)” value ([3]; 7 w) was 156.8%, the “Weight” value ([3]; 8 w) was 37.15 g and the “Weight (%)” value ([3]; 8 w) was 165.8%. For the same substance, the “Weight” value ([3]; 9 w) was 38.97 g, the “Weight (%)” value ([3]; 9 w) was 173.9% and the “Weight” value ([3]; 10 w) was 40.39 g. For the same substance, the “Weight (%)” value ([3]; 10 w) was 180.2%, the “Weight” value ([3]; 11 w) was 41.35 g and the “Weight (%)” value ([3]; 11 w) was 184.5%. For the same substance, the “Weight” value ([3]; 12 w) was 43.91 g and the “Weight (%)” value ([3]; 12 w) was 195.9%.
